What is called mortality is the share of the test organisms that died.

The test system of the first data set is larvae of brown planthopper (Nilaparvata lugens Stahl). Nature of the data set: Test Example 1: insecticidal activity against larvae of brown planthopper. It counts as in vivo. As to conditions: 120 h, third-instar larvae, 25° C., 5 days after treatment. The procedure, abridged: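 Rice seedlings at 1.5-leaf stage were dipped for 30 s in a 400 ppm test composition, air-dried, and infested with third-instar N. lugens larvae. After holding at 25 °C, mortality was scored 5 or 7 days post-treatment from three replicates.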
`CC(C)CN1C(=O)N(c2cccc(Cl)c2)CSC1=NC(C)(C)C` [Compound 223] returned a mortality at 400 ppm of 100%.
On the same count and under the same terms, the value for `CCCN1C(=O)N(c2ccccc2)CSC1=NC(C)C` [Compound 135] was 100%; that for `CCc1ccc(N2CSC(=NC(C)(C)C)N(C(C)C)C2=O)cc1` [Compound 333, 2-t-butylimino-3-isopropyl-5-(p-ethylphenyl)-tetrahydro-1,3,5-thiadiazin-4-one] was 100%.
In the case of `CCCN1C(=O)N(c2cccc(Cl)c2)CSC1=NC(C)(C)C` [Compound 232], the mortality at 400 ppm is 70%.
The compound `C=CCN1C(=O)N(c2ccccc2)CSC1=NC(C)C` [Compound 141] gave a mortality at 400 ppm of 100%.

For a further data set, the system named is larvae of white-backed planthopper (Sogatella furcifera Horvath). The data set is described as follows: Test Example 2: insecticidal activity against larvae of white-backed planthopper. As to conditions: 168 h, 400 ppm, first-instar larvae, 25° C., seven days after treatment, read-out: Mortality. Type of data set: in vivo. In a few lines: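 Rice seedlings at 1.5-leaf stage were dipped 30 s in 400 ppm test composition, air-dried, and infested with five first-instar larvae. Tubes were held at 25°C, and mortality was scored at 7 days from triplicate tests.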
For the compound `CC(C)N=C1SCN(c2ccccc2)C(=O)N1C(C)C` [Compound 144, 2-Isopropylimino-3-isopropyl-5-phenyltetrahydro-1,3,5-thiadiazin-4-one], the mortality at 400 ppm was determined as 100%.
Take `CCc1ccc(N2CSC(=NC(C)(C)C)N(C(C)C)C2=O)cc1` [Compound 333, 2-t-butylimino-3-isopropyl-5-(p-ethylphenyl)-tetrahydro-1,3,5-thiadiazin-4-one]: the mortality at 400 ppm is 100%.

In another data set the test system is two-spotted spider mite (Tetranychus urticae Koch). The data set is described as follows: Test Example 3: activity to two-spotted spider mite. Type of data set: in vivo. As to conditions: 120 h, 1,000 ppm, 5 days after treatment. The source says: Activity to two-spotted spider mite (Tetranychus urticae Koch).
Testing method: Two-spotted spider mites were set free on the pot-planted soybean in a greenhouse. On the next day, a test composition of 1,000 ppm concentration was sprayed over the soybean by means of a spray gun. Two days or five days after the treatment, dead-and-survival was inspected to calculate the mortality.
For the compound `CC(C)CN1C(=O)N(c2cccc(Cl)c2)CSC1=NC(C)(C)C` [Compound 223], the mortality at 1000 ppm was 70%.

In a further data set the test system is cirrus red mite (Panonychus citri McGregor). The data set is described as follows: Test Example 4: activity to citrus red mite (Rothamstead method). Type of data set: in vivo. Also noted: concentration or dose not given beside the values. The note with it: two days after treatment, 25° C.; 2880 min. The protocol: Activity to cirrus red mite (Panonychus citri McGregor).
Testing method: The test was performed by Rothamstead method. A test composition was sprayed by means of a spray gun over grapefruit leaves infested with citrus red mites. After air-drying the grapefruit was left standing in a constant temperature cabinet at 25° C. Two days after the treatment, the number of survived mites was counted to calculate the mortality.
For `CC(C)N=C1SCN(c2ccccc2)C(=O)N1C` [Compound 118, 2-Isopropylimino-3-methyl-5-phenyl-tetrahydro-1,3,5-thiadiazin-4-one], the Mortality stood at 100%.
Take `CCCN1C(=O)N(c2ccccc2)CSC1=NC(C)C` [Compound 135]: the Mortality came out at 100%.

A further data set has as its system larvae of green rice leafhopper (Nephotettix cincticeps Uhler). The data set is described as follows: Test Example 5: activity against larvae of green rice leafhopper. It counts as in vivo. As to conditions: 168 h, 400 ppm, second-instar larvae, 25° C., seven days after treatment, read-out: Mortality. The procedure, abridged: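 Rice seedlings at 1.5 leaf age dipped 30 seconds in 400 ppm test composition, air-dried, then infested with five second-instar larvae. Kept at 25° C; mortality scored seven days after treatment, three replicates.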
As for `CC(C)N=C1SCN(c2ccccc2)C(=O)N1C(C)C` [Compound 144, 2-Isopropylimino-3-isopropyl-5-phenyltetrahydro-1,3,5-thiadiazin-4-one], the mortality at 400 ppm turned out to be 100%.
Turning to `CCc1ccc(N2CSC(=NC(C)(C)C)N(C(C)C)C2=O)cc1` [Compound 333, 2-t-butylimino-3-isopropyl-5-(p-ethylphenyl)-tetrahydro-1,3,5-thiadiazin-4-one], the mortality at 400 ppm was found to be 100%.
`C=CCN1C(=O)N(c2ccccc2)CSC1=NC(C)C` [Compound 141]: the mortality at 400 ppm worked out at 100%.

The test system of a further data set is larvae of house mosquito (Culex pipiens pallens Coquillett). The data set is described as follows: Test Example 6: insecticidal activity to larvae of house mosquito. It counts as in vivo. The note with it: 120 h. The procedure, abridged: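 Twenty first-instar Culex pipiens pallens larvae placed with feed in test composition diluted in deionized water to 10 ppm. Kept at 25 °C, and mortality counted five days after treatment.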
As for `CC(C)N=C1SCN(c2ccccc2)C(=O)N1C(C)C` [Compound 144, 2-Isopropylimino-3-isopropyl-5-phenyltetrahydro-1,3,5-thiadiazin-4-one], the mortality at 10 ppm was determined as 100%.
In turn, `CC(C)CN1C(=O)N(c2cccc(Cl)c2)CSC1=NC(C)(C)C` [Compound 223] yielded a mortality at 10 ppm of 100%.
Same read-out and setting: the value for `CCCN1C(=O)N(c2ccccc2)CSC1=NC(C)C` [Compound 135] was 100%; that for `CCc1ccc(N2CSC(=NC(C)(C)C)N(C(C)C)C2=O)cc1` [Compound 333, 2-t-butylimino-3-isopropyl-5-(p-ethylphenyl)-tetrahydro-1,3,5-thiadiazin-4-one] was 100%; that for `C=CCN1C(=O)N(c2ccccc2)CSC1=NC(C)C` [Compound 141] was 100%.

In a further data set the test system is adult rust-red-flour beetle (Tribolium castaneum Herbst). Nature of the data set: Test Example 7: insecticidal activity to adult rust-red-flour beetle. It counts as in vivo. As to conditions: 400 ppm, adults, 25° C., 24 hours, read-out: Mortality. The protocol:
Insecticidal activity to adult rust-red-flour beetle (Tribolium castaneum Herbst).
Testing method: Into a 9-cm Petri dish covered on the bottom with a piece of filter paper, was introduced 7 ml of a test composition of 400 ppm concentration. Ten adult rust-red flour beetles were released in the Petri dish and left standing in a constant temperature cabinet at 25° C. After 24 hours, the dead-and-survival was inspected to calculate the mortality.
In the case of `CC(C)CN1C(=O)N(c2cccc(Cl)c2)CSC1=NC(C)(C)C` [Compound 223], the mortality at 400 ppm was 100%.

Another data set relates to larvae of 28-spotted lady beetle (Epilachna vigintioctopunctana Fabricius). Nature of the data set: Test Example 8: insecticidal activity against larvae of 28-spotted lady beetle. It counts as in vivo. As to conditions: 120 h. The procedure, abridged:
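Tomato leaflets dipped 30 s in 100 ppm test composition, air-dried, and placed in Petri dishes with seven second-instar larvae at 25° C. Mortality scored five days after treatment, two replicates.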
As to `CC(C)N=C1SCN(c2ccccc2)C(=O)N1C(C)C` [Compound 144, 2-Isopropylimino-3-isopropyl-5-phenyltetrahydro-1,3,5-thiadiazin-4-one], the mortality at 100 ppm was found to be 100%.
With `CCCN1C(=O)N(c2ccccc2)CSC1=NC(C)C` [Compound 135], the mortality at 100 ppm was found to be 100%.
The compound `C=CCN1C(=O)N(c2ccccc2)CSC1=NC(C)C` [Compound 141] returned a mortality at 100 ppm of 100%.

The subject of the next data set is larvae of bug. (Togo hemipterus Scott). The data set is described as follows: Test Example 9: insecticidal activity against larvae of bug. Type of data set: in vivo. As to conditions: 120 h, 10 ppm, first-instar larvae, 25° C., five days, read-out: Mortality. As for the experimental part:
Insecticidal activity against larvae of bug. (Togo hemipterus Scott).
Test method: Into a glass tube (1.6 cm in internal diameter and 9 cm in length), was added 1 ml of a test composition in 10 ppm concentration just to moisten the absorbent cotton. Five rice seeds and five first-instar larvae were introduced into the glass tube and the tube end was covered with a piece of Japanese paper. The glass tube was kept in a constant temperature cabinet at 25° C. Five days after treatment, the dead-and-survival was inspected to calculate the mortality (3-replication test).
As to `CC(C)N=C1SCN(c2ccccc2)C(=O)N1C(C)C` [Compound 144, 2-Isopropylimino-3-isopropyl-5-phenyltetrahydro-1,3,5-thiadiazin-4-one], the mortality at 10 ppm is 100%.
In the case of `CC(C)N=C1SCN(c2ccccc2)C(=O)N1C` [Compound 118, 2-Isopropylimino-3-methyl-5-phenyl-tetrahydro-1,3,5-thiadiazin-4-one], the mortality at 10 ppm was determined as 100%.
Take `CCCN1C(=O)N(c2ccccc2)CSC1=NC(C)C` [Compound 135]: the mortality at 10 ppm stood at 100%.
On the same count and under the same terms, the value for `C=CCN1C(=O)N(c2ccccc2)CSC1=NC(C)C` [Compound 141] was 80%.

In another data set the test system is larvae of diamond-back moth (Plutilla xylostella Linn'e). Nature of the data set: Test Example 10: insecticidal activity against larvae of diamond-back moth. As to conditions: 400 ppm, first-instar larvae, three days; 4320 min. Type of data set: in vivo. The text has this:
Insecticidal activity against larvae of diamond-back moth (Plutilla xylostella Linn'e). Testing method: A test composition of 400 ppm concentration was sprayed over the pot-planted chinese cabbage in a greenhouse by means of a spray gun. After air-drying, the chinese cabbage was infested with 10 first-instar larvae of diamond-back moth and was left standing in the greenhouse. Three days after the treatment, the dead-and-survival was inspected to calculate the mortality (3-replication test).
`CC(C)N=C1SCN(c2ccc([N+](=O)[O-])cc2[N+](=O)[O-])C(=O)N1C(C)C` [Compound 366] returned a Mortality of 100%.
`CC(C)(C)N=C1SCN(c2ccc(Cl)cc2)C(=O)N1C1CCCCC1` [Compound 208]: the Mortality amounted to 80%.
Same read-out and setting: the value for `CC(C)N1C(=O)N(c2cccc(Cl)c2)CSC1=NC1CCCCC1` [Compound 230] was 100%; that for `CCc1ccc(N2CSC(=NC)N(C)C2=O)cc1` [Compound 331, 2-methylimino-3-methyl-5-(p-ethylphenyl)-tetrahydro-1,3,5-thiadiazin-4-one] was 100%; that for `COCCN1C(=O)N(c2ccc(Cl)cc2)CSC1=NC(C)C` [Compound 207] was 100%.
Compound `Cc1cccc(N2CSC(=NC(C)C)N(Cc3ccccc3)C2=O)c1` [Compound 329] displayed a Mortality of 100%.
Same read-out and setting: the result for `CCc1ccc(N2CSC(=NC(C)(C)C)N(C(C)C)C2=O)cc1` [Compound 333, 2-t-butylimino-3-isopropyl-5-(p-ethylphenyl)-tetrahydro-1,3,5-thiadiazin-4-one] reads 100%; that for `CCCN1C(=O)N(c2cccc(Cl)c2)CSC1=NC(C)(C)C` [Compound 232], 70%.
